Test results taken from patent US20140329833A1, “LYSINE DEMETHYLASE INHIBITORS FOR INFLAMMATORY DISEASES OR CONDITIONS” (ORYZON GENOMICS, S.A, priority 2011, published 2014).

Key:
[1] = tested on: dimethylated H3K4 in SH-SY5Y cells; assay: Western blot for H3K4 methylation in SH-SY5Y cells; type: cell-based; settings: Dual-1 100 μM vs parnate 250 μM
Description: FIG. 3 Compound Dual-1 Increases Histone Methylation.
B-actin was used as a loading control.

[2] = biological target: T1, LSD1 (Homo sapiens, UniProt O60341); settings: Ueda et al. (2009) J. Am. Chem. Soc. 131(48):17536-17537; cited from earlier work
[3] = biological target: T1, LSD1; assay: LSD1 demethylase inhibition assay (Amplex Red peroxide/peroxidase-coupled); type: biochemical; design: purchased BPS Bioscience Inc; settings: from the IC50 values for LSD1, MAO-A and MAO-B
Experimental: Compounds for use in the methods of the invention can be identified by their ability to inhibit LSD1. The ability of compounds to inhibit LSD1 can be tested as follows. Human recombinant LSD1 protein was purchased from BPS Bioscience Inc. In order to monitor LSD1 enzymatic activity and/or its inhibition rate by the LSD1 inhibitor(s) of interest, di-methylated H3-K4 peptide (Millipore) was chosen as a substrate.
Within the experiment, each concentration of inhibitor was tested in duplicate. […] The enzymatic reactions were set up in a 50 mM sodium phosphate, pH 7.4 buffer. At the end of the incubation, Amplex® Red reagent and horseradish peroxidase (HPR) solution were added to the reaction according to the recommendations provided by the supplier (Invitrogen), and left to incubate for 30 extra minutes at room temperature in the dark. A 1 μM H2O2 solution was used as a control of the kit efficiency. […] Arbitrary units were used to measure level of H2O2 produced in the absence and/or in the presence of inhibitor.
The maximum demethylase activity of LSD1 was obtained in the absence of inhibitor and corrected for background fluorescence in the absence of LSD1. The Ki (IC50) of each inhibitor was estimated at half of the maximum activity.

Structure (SMILES): NC(=O)CN[C@H]1C[C@@H]1c1ccc(OCc2ccccc2)cc1 (racemic) [Compound 1]
- potency at increasing global H3K4 methylation levels compared to tranylcypromine [1]: ten-fold or more potent
- IC50 [2]: 2500 nM
- selectivity class (LSD1 vs MAO-A and MAO-B) [3]: dual LSD1/MAO-B selective inhibitors
